Results taken from US10759767B2 (priority 2012, dated 2020).
Where two headings read alike, the source gives them in different places.

What was measured:
[1] = tested on: Phytophthora infestans; experiment: microbe, parasite or virus in culture; type: cell-based; settings: for Observed efficacy: solo product
[2] = tested on: Alternaria solani; experiment: Microtest: activity against early blight caused by Alternaria solani (Alteso); type: cell-based; settings: for inhibition of growth at 4e-06 ppm: solo 0.000004 ppm; for inhibition of growth at 6.3e-05 ppm: solo 0.000063 ppm
[3] = tested on: Pyricularia oryzae; experiment: microbe, parasite or virus in culture; type: cell-based; settings: for Observed efficacy: solo product; for inhibition of growth at 0.001 ppm / inhibition of growth at 0.004 ppm / inhibition of growth at 0.016 ppm / inhibition of growth at 1 ppm: Pyricularia oryzae, 168 h, read-out: Observed efficacy
[4] = tested on: Septoria tritici; experiment: Microtest: activity against leaf blotch on wheat caused by Septoria tritici (Septtr); type: cell-based; settings: solo product; for inhibition of growth at 2.5e-07 ppm: 0.00000025 ppm; for inhibition of growth at 1e-06 ppm: 0.000001 ppm; for inhibition of growth at 4e-06 ppm: 0.000004 ppm; for inhibition of growth at 6.3e-05 ppm: 0.000063 ppm
[5] = tested on: Botrytis cinerea; experiment: Microtest: activity against the grey mold Botrytis cinerea (Botrci); type: cell-based; settings: for Observed efficacy: solo 0.016 ppm; for inhibition of growth at 4e-06 ppm: solo 0.000004 ppm; for inhibition of growth at 1.6e-05 ppm: solo 0.000016 ppm; for inhibition of growth at 6.3e-05 ppm: solo 0.000063 ppm
[6] = tested on: Leptosphaeria nodorum; experiment: Microtest: activity against wheat leaf spots caused by Leptosphaeria nodorum (Leptno); type: cell-based; settings: for inhibition of growth at 6.3e-05 ppm: 0.000063 ppm
[7] = Phytophthora infestans, 168 h, read-out: Observed efficacy
[8] = Zymoseptoria tritici, 168 h, second Septtr microtest, read-out: Observed efficacy
[9] = Botrytis cinerea, 168 h, solo 0.063 ppm, read-out: Observed efficacy
[10] = Botrytis cinerea, 168 h, solo 0.25 ppm, read-out: Observed efficacy
[11] = Alternaria solani, 168 h, read-out: Observed efficacy
[12] = Alternaria solani, 168 h, solo 0.016 ppm, read-out: Observed efficacy
[13] = second Septtr microtest, 0.016 ppm
[14] = Botrytis cinerea, 168 h, read-out: Observed efficacy
[15] = Alternaria solani, 168 h, solo 0.00025 ppm, read-out: Observed efficacy
[16] = Alternaria solani, 168 h, solo 0.001 ppm, read-out: Observed efficacy
[17] = Parastagonospora nodorum, 168 h, solo product, read-out: Observed efficacy
[18] = Zymoseptoria tritici, 168 h, second Septtr microtest, 0.000016 ppm, read-out: Observed efficacy

For `CC#CC(O)(Cn1cncn1)c1ccc(Oc2ccc(Cl)cc2)cc1C(F)(F)F` (centres unmarked), the melting point was 137 °C.

`CON=C(C(=O)OC)c1ccccc1CON=C(C)c1cccc(C(F)(F)F)c1` [II-92, trifloxystrobin, reference compound] showed an inhibition of growth at 1 ppm [1, 7] of 37%, an Observed efficacy ([2]; solo 0.004 ppm) of 7 and an Observed efficacy ([2]; solo 0.016 ppm) of 11.

`CC1(C)CC/C(=C\c2ccc(Cl)cc2)C1(O)Cn1cncn1` (centres unmarked) [Triticonazol] showed an Observed efficacy ([1]; 16 ppm) of 0%, an Observed efficacy ([3]; 1 ppm) of 1% and an Observed efficacy ([3]; 4 ppm) of 59%.

Work on `CC(C)C(O)(Cn1cncn1)c1ccc(Oc2ccc(Cl)cc2)cc1C(F)(F)F` (centres unmarked) [I-5, 2-[4-(4-chlorophenoxy)-2-(trifluoromethyl)phenyl]-3-methyl-1-(1,2,4-triazol-1-yl)butan-2-ol] yielded an inhibition of growth at 2.5e-07 ppm [4, 8] of 5%, an inhibition of growth at 1e-06 ppm [4, 8] of 10% and an inhibition of growth at 1.6e-05 ppm ([4]; Zymoseptoria tritici, 168 h, 0.000016 ppm, read-out: Observed efficacy) of 13%. It also gave an Observed efficacy ([4]; second Septtr microtest, 0.000016 ppm) of 13%, an inhibition of growth at 16 ppm [1, 7] of 2% and an inhibition of growth at 63 ppm [1, 7] of 45%. It also gave a melting point of 114 °C, an inhibition of growth at 0.001 ppm [3] of 5% and an inhibition of growth at 0.004 ppm [3] of 0%. The inhibition of growth at 0.016 ppm [3] was 0%, the inhibition of growth at 1 ppm [3] was 67% and the inhibition of growth at […] [5, 9] was 14%. It also gave an inhibition of growth at […] [5, 10] of 27%, an inhibition of growth at 4e-06 ppm [2, 11] of 8% and an inhibition of growth at 0.004 ppm ([2]; Alternaria solani, 168 h, solo 0.004 ppm, read-out: Observed efficacy) of 11%. It also gave an inhibition of growth at 0.016 ppm [2, 12] of 10%, an inhibition of growth at […] ([2]; Alternaria solani, 168 h, solo 0.063 ppm, read-out: Observed efficacy) of 14% and an inhibition of growth at 1 ppm ([2]; Alternaria solani, 168 h, solo 1 ppm, read-out: Observed efficacy) of 49%. For the same compound, the inhibition of growth at […] ([6]; Parastagonospora nodorum, 168 h, solo 0.25 ppm, read-out: Observed efficacy) was 19%, the inhibition of growth at 0.001 ppm ([6]; Parastagonospora nodorum, 168 h, solo product, 0.001 ppm, read-out: Observed efficacy) was 9% and the inhibition of growth at […] ([6]; Parastagonospora nodorum, 168 h, solo product, 0.063 ppm, read-out: Observed efficacy) was 20%.

For `Fc1ccc([C@]2(Cn3cncn3)O[C@H]2c2ccccc2Cl)cc1` [Epoxiconazol], the Observed efficacy [4, 13] was 16%, the Observed efficacy ([1]; 4 ppm) was 27 and the Observed efficacy [5] was 11. For the same compound, the Observed efficacy ([2]; solo 0.004 ppm) was 5 and the Observed efficacy ([2]; solo 0.016 ppm) was 8.

In the case of `COC(=O)Nc1nc2ccccc2[nH]1` [II-8, carbendazim, reference compound], the Observed efficacy ([4]; second Septtr microtest, 16 ppm) is reported as 16%, the inhibition of growth at 4 ppm [1, 7] is reported as 24% and the Observed efficacy ([2]; solo 4 ppm) is reported as 7. For the same compound, the Observed efficacy ([2]; solo 16 ppm) was 10 and the Observed efficacy ([2]; solo 63 ppm) was 34.

For `Cn1cc(C(=O)Nc2ccc(F)cc2-c2ccc(Cl)c(Cl)c2)c(C(F)F)n1` [II-6, bixafen, reference compound], the Observed efficacy ([1]; 1 ppm) was 25, the Observed efficacy [5] was 8 and the Observed efficacy ([2]; solo 0.001 ppm) was 5. The Observed efficacy ([2]; solo 0.004 ppm) was 38.

Compound `CC#CC(O)(Cn1cncn1)c1ccc(Oc2ccc(Cl)cc2)cc1Cl` (centres unmarked) [I-1, 2-[2-chloro-4-(4-chlorophenoxyl)phenyl]-1-(1,2,4-triazol-1-yl)pent-3-yn-2-ol] has an inhibition of growth at 4e-06 ppm [4, 8] of 11%, an inhibition of growth at […] ([4]; Zymoseptoria tritici, 168 h, second Septtr microtest, 0.00063 ppm, read-out: Observed efficacy) of 17% and an inhibition of growth at 6.3e-05 ppm ([4]; Zymoseptoria tritici, 168 h, read-out: Observed efficacy) of 17%. It also gave an inhibition of growth at 16 ppm [1, 7] of 0%, a melting point of 137 °C and an inhibition of growth at 0.001 ppm [3] of 3%. It also gave an inhibition of growth at 0.016 ppm [3] of 0%, an Observed efficacy ([3]; 0.016 ppm) of 0% and an inhibition of growth at 1e-06 ppm ([5]; Botrytis cinerea, 168 h, solo 0.000001 ppm, read-out: Observed efficacy) of 4%. The inhibition of growth at 4e-06 ppm [5, 14] was 0%, the inhibition of growth at 1.6e-05 ppm [5, 14] was 1% and the inhibition of growth at 6.3e-05 ppm [5, 14] was 0%. The inhibition of growth at […] [5, 9] was 16%, the inhibition of growth at […] [2, 15] was 4% and the inhibition of growth at 0.001 ppm [2, 16] was 10%. The inhibition of growth at […] ([6]; Parastagonospora nodorum, 168 h, solo 0.063 ppm, read-out: Observed efficacy) was 19% and the inhibition of growth at 6.3e-05 ppm [6, 17] was 12%.

`OC(Cn1cncn1)(c1ccc(Oc2ccc(Cl)cc2)cc1C(F)(F)F)C1CC1` (centres unmarked) [I-4, 1-[4-(4-chlorophenoxy)-2-(trifluoromethyl)phenyl]-1-cyclopropyl-2-(1,2,4-triazol-1-yl)ethanol] showed an inhibition of growth at 1.6e-05 ppm [4, 18] of 3%, an inhibition of growth at 6.3e-05 ppm [4, 8] of 8% and an inhibition of growth at 0.001 ppm ([4]; Zymoseptoria tritici, 168 h, 0.001 ppm, read-out: Observed efficacy) of 0%. For the same compound, the Observed efficacy ([4]; second Septtr microtest, 0.001 ppm) was 0%, the Observed efficacy ([4]; 0.016 ppm) was 18 and the inhibition of growth at 4 ppm [1, 7] was 3%. It also gave an inhibition of growth at 16 ppm [1, 7] of 9%, an inhibition of growth at 1 ppm [3] of 47% and an inhibition of growth at 6.3e-05 ppm [5, 14] of 4%. For the same compound, the inhibition of growth at […] ([5]; Botrytis cinerea, 168 h, solo 0.00025 ppm, read-out: Observed efficacy) was 2%, the inhibition of growth at 0.001 ppm ([5]; Botrytis cinerea, 168 h, solo 0.001 ppm, read-out: Observed efficacy) was 5% and the inhibition of growth at […] [5, 9] was 4%. For the same compound, the inhibition of growth at […] [5, 10] was 17%, the inhibition of growth at 6.3e-05 ppm [2, 11] was 5% and the inhibition of growth at […] [2, 15] was 7%. It also gave an inhibition of growth at 0.001 ppm [2, 16] of 10%, an inhibition of growth at […] ([2]; Alternaria solani, 168 h, solo 0.25 ppm, read-out: Observed efficacy) of 33% and an inhibition of growth at 0.001 ppm ([6]; Parastagonospora nodorum, 168 h, solo 0.001 ppm, read-out: Observed efficacy) of 15%.

With `CC1COC(Cn2cncn2)(c2ccc(Oc3ccc(Cl)cc3)cc2Cl)O1` (centres unmarked) [Difenoconazol] the Observed efficacy [4, 13] was 26%, the Observed efficacy ([1]; 4 ppm) was 30 and the Observed efficacy ([2]; solo 0.004 ppm) was 5. For the same compound, the Observed efficacy ([2]; solo 0.016 ppm) was 5 and the Observed efficacy ([6]; solo 0.016 ppm) was 29.

For `COC(=O)N(OC)c1ccccc1COc1ccn(-c2ccc(Cl)cc2)n1` [II-66, pyraclostrobin, reference compound], the Observed efficacy ([4]; second Septtr microtest, 0.004 ppm) was 37%, the Observed efficacy ([4]; 0.001 ppm) was 12 and the Observed efficacy ([4]; 0.004 ppm) was 37. It also gave an inhibition of growth at 0.001 ppm [3] of 5%, an inhibition of growth at 0.016 ppm [2, 12] of 18% and an Observed efficacy ([2]; solo 0.004 ppm) of 8. It also gave an inhibition of growth at 0.016 ppm ([6]; Parastagonospora nodorum, 168 h, solo 0.016 ppm, read-out: Observed efficacy) of 24%.

For `CC(C)(C)C(O)(CCc1ccc(Cl)cc1)Cn1cncn1` (centres unmarked) [Tebuconazol], the Observed efficacy ([1]; 1 ppm) was 25, the Observed efficacy [5] was 9 and the Observed efficacy ([2]; solo 0.016 ppm) was 8.

Work on `OC(Cn1cncn1)(c1ccc(Oc2ccc(Cl)cc2)cc1Cl)C1CC1` (centres unmarked) yielded a melting point of 110 °C.

`N#Cc1c[nH]cc1-c1cccc2c1OC(F)(F)O2` [II-34, fludioxonil, reference compound] gave an Observed efficacy ([1]; 1 ppm) of 0% and an Observed efficacy ([2]; solo product, 0.016 ppm) of 13%.

With `O=c1c2cc(F)ccc2nc(-n2cncn2)n1-c1ccc(Cl)cc1Cl` [Fluquinconazol] the Observed efficacy ([4]; 0.004 ppm) was 0%, the Observed efficacy ([1]; 4 ppm) was 0% and the Observed efficacy ([3]; 1 ppm) was 1%.

`CC(O)(Cn1cncn1)c1ccc(Oc2ccc(Cl)cc2)cc1C(F)(F)F` (centres unmarked) [I-3, 2-[4-(4-chlorophenoxy)-2-(trifluoromethyl)phenyl]-1-(1,2,4-triazol-1-yl)propan-2-ol] gave an inhibition of growth at 2.5e-07 ppm [4, 8] of 8%, an inhibition of growth at 1e-06 ppm [4, 8] of 5% and an inhibition of growth at 4e-06 ppm [4, 8] of 14%. The inhibition of growth at 1.6e-05 ppm [4, 18] was 16%, the Observed efficacy ([4]; 0.000016 ppm) was 16 and the Observed efficacy ([4]; 0.004 ppm) was 54. The inhibition of growth at 4 ppm [1, 7] was 4%, the inhibition of growth at 16 ppm [1, 7] was 4% and the inhibition of growth at 0.004 ppm [3] was 0%. It also gave an inhibition of growth at 1 ppm [3] of 37%, an inhibition of growth at 4e-06 ppm [5, 14] of 0% and an inhibition of growth at 1.6e-05 ppm [5, 14] of 5%. The inhibition of growth at 6.3e-05 ppm [5, 14] was 0%, the inhibition of growth at […] [5, 9] was 23% and the inhibition of growth at 4e-06 ppm [2, 11] was 5%. It also gave an inhibition of growth at 6.3e-05 ppm [2, 11] of 8%, an Observed efficacy ([2]; solo product, 0.000016 ppm) of 0% and an inhibition of growth at 6.3e-05 ppm [6, 17] of 26%.
